Test results from patent US12544370B2, “Methods for cancer therapy” (ASCENTAGE PHARMA (SUZHOU) CO., LTD., priority 2018, dated 2026).

Tests used:
[1] = molecular target: Ba/F3 containing BCR-ABL mutation T315M (Homo sapiens, UniProt P00519, T315M, cells depend on it); conditions: read-out: Antiproliferation Effect (IC50)
Description: (§1) Ba/F3 cells stably expressing BCR-ABL (F359V, H396R, E255K, Y253H, T315I, F317L) mutations were provided by the Institute of Life and Health, Guangzhou Academy of Sciences.
(§2) 1. The mutated Ba/F3 cell line stably expressing BCR-ABL (E255V, T315M, Y253H/E255V, Y253H/T315I, Y253H/F359V, T315I/F317L, F317L/F359V) mutation was constructed by electro-transformation method, the Ba/F3 cell line stably expressing the BCR-ABL (E255V/T315I, T315I/F359V) mutation was constructed by lentivirus infection method.
(§3) 2. Effect of drugs on the proliferation of BaF3 cells stably transfected with BCR-ABL single mutation or complex mutation by WST assay
(§4) The dilution was used as a cell blank control (excluding the sample to be tested, which was added to the cells). In addition, a negative control (excluding the sample to be tested and cells) was prepared. In addition to the negative control wells, 100 μl of complete medium cell suspension was added to each well. The dilution was added to the negative control wells at 100 μl/well. 3 repeated wells were set in the experiment. […] 20 μl of CCK-8 detection solution (Shanghai Life iLab Biotech Co., LTD, Cat #D3100L4057) was added to each well, incubating at 37° C. for 2 hours in a CO2 incubator. The OD value was measured at A450 nm by a microplate reader.
(§5) The percentage of cell viability was calculated using the following formula: (O.D. test well-O.D. negative control well)/(O.D. cell control well-O.D. negative control well)×100
(§6) The IC50 was calculated using a non-linear regression data analysis method of Graphpad Prism 6.0 software ([…]).

[2] = molecular target: Ba/F3 containing BCR-ABL mutation Y253H (Homo sapiens, UniProt P00519, Y253H, cells depend on it); conditions: read-out: Antiproliferation Effect (IC50)
Description: as §1, §2, §3, §4, §5, §6

[3] = molecular target: Ba/F3 containing BCR-ABL mutation H396R (Homo sapiens, UniProt P00519, H396R, cells depend on it); conditions: read-out: Antiproliferation Effect (IC50)
Description: as §1, §2, §3, §4, §5, §6

[4] = molecular target: Ba/F3 containing BCR-ABL mutation Y253H/E255V (Homo sapiens, UniProt P00519, Y253H/E255V, cells depend on it); conditions: read-out: Antiproliferation Effect (IC50)
Description: as §1, §2, §3, §4, §5, §6

[5] = molecular target: Ba/F3 containing BCR-ABL mutation E255V (Homo sapiens, UniProt P00519, E255V, cells depend on it); conditions: read-out: Antiproliferation Effect (IC50)
Description: as §1, §2, §3, §4, §5, §6

[6] = molecular target: Ba/F3 containing BCR-ABL mutation F317L (Homo sapiens, UniProt P00519, F317L, cells depend on it); conditions: read-out: Antiproliferation Effect (IC50)
Description: as §1, §2, §3, §4, §5, §6

[7] = molecular target: Ba/F3 containing BCR-ABL mutation T315I (Homo sapiens, UniProt P00519, T315I, cells depend on it); conditions: read-out: Antiproliferation Effect (IC50)
Description: as §1, §2, §3, §4, §5, §6

[8] = molecular target: Ba/F3 containing BCR-ABL mutation Y253H/T315I (Homo sapiens, UniProt P00519, Y253H/T315I, cells depend on it); conditions: read-out: Antiproliferation Effect (IC50)
Description: as §1, §2, §3, §4, §5, §6

[9] = molecular target: Ba/F3 containing BCR-ABL mutation E255K (Homo sapiens, UniProt P00519, E255K, cells depend on it); conditions: read-out: Antiproliferation Effect (IC50)
Description: as §1, §2, §3, §4, §5, §6

[10] = molecular target: Ba/F3 containing BCR-ABL mutation T315I/F359V (Homo sapiens, UniProt P00519, T315I/F359V, cells depend on it); conditions: read-out: Antiproliferation Effect (IC50)
Description: as §1, §2, §3, §4, §5, §6

[11] = molecular target: Ba/F3 containing BCR-ABL mutation E255V/T315I (Homo sapiens, UniProt P00519, E255V/T315I, cells depend on it); conditions: read-out: Antiproliferation Effect (IC50)
Description: as §1, §2, §3, §4, §5, §6

[12] = molecular target: Ba/F3 containing BCR-ABL mutation T315I/F317L (Homo sapiens, UniProt P00519, T315I/F317L, cells depend on it); conditions: read-out: Antiproliferation Effect (IC50)
Description: as §1, §2, §3, §4, §5, §6

[13] = molecular target: Ba/F3 containing BCR-ABL mutation Y253H/F359V (Homo sapiens, UniProt P00519, Y253H/F359V, cells depend on it); conditions: read-out: Antiproliferation Effect (IC50)
Description: as §1, §2, §3, §4, §5, §6

[14] = molecular target: Ba/F3 containing BCR-ABL mutation F359V (Homo sapiens, UniProt P00519, F359V, cells depend on it); conditions: read-out: Antiproliferation Effect (IC50)
Description: as §1, §2, §3, §4, §5, §6

[15] = tested on: tyrosine phosphorylation of CRKL in peripheral blood mononuclear cell (PBMCs); test: Phase I study, pharmacodynamics: CRKL phosphorylation in PBMCs (Example 1); format: in vivo, human; conditions: doses 12 mg-60 mg, schedule and dose-dependent
[16] = tested on: CRKL phosphorylation in PBMCs, a biomarker of BCR-ABL inhibition; test: Phase 1 trial, CRKL phosphorylation in PBMCs (Example 2); format: in vivo, human; conditions: 53 evaluable patients
Description: The eligible patients received treatments until disease progression or intolerable toxicities. The primary efficacy endpoint in the CML AP and CP patients, was complete hematological response (CHR) and major cytogenetic response (MCyR) respectively, MCyR includes partial cytogenetic response (PCyR) and complete cytogenetic response (CCyR). Blood samples were collected at various time points on Day 1-2 and Day 27-28 during cycle 1 for PK analyses.

Compound: Cc1ccc(C(=O)Nc2ccc(CN3CCN(C)CC3)c(C(F)(F)F)c2)cc1C#Cc1cnc2[nH]ncc2c1 [compound of formula (I-A), 3-(2-(1H-pyrazolo[3,4-b]pyridin-5-yl)ethynyl)-4-methyl-N-(4-((4-methylpiperazin-1-yl)methyl)-3-(trifluoromethyl)phenyl)-benzamide]
- GI50 [1]: 217 ± 131 nM
- GI50 [2]: 7 ± 1 nM
- GI50 [3]: 274 ± 82 nM
- GI50 [4]: 122 nM
- GI50 [5]: 13.5 ± 1 nM
- GI50 [6]: 8 ± 3 nM
- GI50 [7]: 24 ± 10 nM
- GI50 [8]: 111 ± 1 nM
- GI50 [9]: 22 ± 13 nM
- GI50 [10]: 7 ± 1 nM
- GI50 [11]: 26 ± 11 nM
- GI50 [12]: 114 ± 9 nM
- GI50 [13]: 100 ± 81 nM
- GI50 [14]: 281 ± 187 nM
- reduction of CRKL phosphorylation [15]: ≥ 50%
- reduction of CRKL phosphorylation in PBMCs [16]: dose and time dependent
